Data set [1] has as its system NCI-H69 SCLC (small cell lung cancer) tumors. Briefly: H69 tumor DM-1 levels by LC/MS-MS. Format: in vivo, mice. Particulars: 24 hour time point; dosed at 1 mg/kg (conjugates, nanoparticles) or 0.4 mg/kg for DM-1. The protocol:
To examine the ability of conjugates of the present invention to accumulate in tumors, a murine cancer model was used. All mice were treated in accordance with the OLAW Public Health Service Policy on Human Care and Use of Laboratory Animals and the ILAR Guide for the Care and Use of Laboratory Animals. All in vivo studies were conducted following the protocols approved by the Blend Therapeutics Institutional Animal Care and Use Committee. Animals were inoculated with 2.5×10{circumflex over (0)}6 NCI-H69 SCLC (small cell lung cancer) cells in 1:1 RPMI 1640 (Invitrogen, Carlsbad, Calif.)/Matrigel® (BD Biosciences, San Jose, Calif.) via subcutaneous injection to the right flank. Tumors were allowed to reach an approximate volume of ˜500 mm3. Animals were then randomized into treatment groups of 3 animals per time point and were dosed at 1 mg/kg (10% propylene glycol in water for injection for free conjugates, or 10% sucrose for nanoparticles), or 0.4 mg/kg for DM-1 (10% propylene glycol in water for injection). The 24 hour time point was used as a benchmark across conjugates.
Tumor DM-1 levels were determined by liquid chromatography mass spectrometry (LC/MS-MS). Four volumes of 5 mM 6-maleimidohexanoic acid to 1 part tumor v/w was added and homogenized for about 10-15 seconds with a handheld homogenizer. 10 μL of 500 mM Tris(2-carboxyethyl)phosphine was added to 100 uL of tumor homogenate, mixed well and incubated at room temperature for about 5-15 min. 200-300 uL of acetonitrile was used to precipitate proteins in tumor homogenate, samples were centrifuged for 5 min, and supernatant was injected onto LC/MS-MS system for DM-1 analysis.

Data set [2] concerns NCI-H524 (ATCC) human lung cancer cells. Format: cell-based. Particulars: Table 15. A digest of the protocol:
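NCI-H524 cells at 5,000/well were exposed to conjugate for 2 h from 20 μM top dose (ten-point, three-fold dilutions), washed, then grown a further 70 h. For competition, cells were pretreated 30 min with 100 μM octreotide. CellTiter Glo readout; % inhibition vs vehicle; four-parameter IC50.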

Data set [3] has as its target SSTR2 (Homo sapiens, UniProt P30874). Briefly: Radioligand-receptor binding assay, [125I] labeled somatostatin, membranes from SSTR2 expressing CHO-K1 cells. The arrangement: host or cells: CHO-K1. The protocol: Two conjugates were assessed in an in vitro assay evaluating binding to the somatostatin receptor 2 (SSTR2). A radioligand-receptor binding assay was conducted at Eurofins Panlabs (Taiwan) to determine the affinity of conjugates described herein to the SSTR2. The assay measures binding of radiolabeled ligand, [^125I] labeled somatostatin, to human SSTR2 using membrane preparations from SSTR2 expressing CHO-K1 cells. Membranes were incubated with radiolabeled somatostatin (0.03 nM) in the presence of conjugate/compound starting at a dose of 10 uM using 6× serial dilutions to obtain a 10-pt curve. After a four-hour incubation, membranes were filtered and washed 3× and counted to determine the remaining [^125I] somatostatin bound to the receptor. IC50 values were determined by a non-linear, least squares regression analysis using MathIQ™ (ID Business Solutions Ltd., UK). The Ki values were calculated using the equation of Cheng and Prusoff (Cheng and Prusoff, Biochem. Pharmacol. 22: 3099-3108, 1973) using the observed IC50 of the tested conjugate/compound, the concentration of radioligand employed in the assay, and the historical values for the KD of the ligand obtained at Eurofins.

[4] abbreviates: treated 2 hours, further incubated 70 hours, read-out: H524 IC50.
Where [5] appears, read: read-out: H524 IC50+ 100 uM octreotide, 100 μM octreotide for 30 min, then conjugate 2 hours, 70 hours incubation.

Like-named read-outs stand apart in the source and are kept apart here. Numbered stars: 1 amine (or outer) side, 2 acyl side, 3 side chain; on linkers, the order of the positions; unused ones are H or OH. Bridge positions count the residues as written; N and C are the ends. Square brackets hold non-standard residues; d marks the D form. Peptide text beside a SMILES is read from it. * marks the point of attachment. X1 = COc1cc2cc(c1Cl)N(C)C(=O)C[C@H](OC(=O)[C@H](C)N(C)C(=O)CCS*)[C@]1(C)O[C@H]1[C@H](C)[C@@H]1C[C@@](O)(NC(=O)O1)[C@H](OC)/C=C/C=C(\C)C2; N(3-sulfanylpropyl)dPhe = O=C([C@@H](Cc1ccccc1)N(CCCS[*:3])[*:1])[*:2]

This note sets out measurements from patent publication US10322191B2, “Targeted conjugates and particles and formulations thereof” (TARVEDA THERAPEUTICS, INC., priority 2014, dated 2019).

Sequence of SSTR2 (P30874 whole entry): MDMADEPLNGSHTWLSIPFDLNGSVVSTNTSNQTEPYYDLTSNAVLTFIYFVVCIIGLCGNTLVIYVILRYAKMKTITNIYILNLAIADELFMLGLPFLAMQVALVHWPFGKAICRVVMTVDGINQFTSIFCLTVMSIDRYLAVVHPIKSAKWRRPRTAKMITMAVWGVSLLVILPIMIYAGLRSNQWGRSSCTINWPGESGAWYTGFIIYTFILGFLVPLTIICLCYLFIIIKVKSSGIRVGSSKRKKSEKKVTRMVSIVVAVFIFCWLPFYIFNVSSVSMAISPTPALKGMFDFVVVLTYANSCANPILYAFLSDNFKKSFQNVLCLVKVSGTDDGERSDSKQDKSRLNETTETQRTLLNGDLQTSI

`COc1cc2cc(c1Cl)N(C)C(=O)C[C@H](OC(=O)[C@H](C)N(C)C(=O)CCSSCCNC(=O)CC[C@H]1C(=O)N[C@@H](Cc3ccc(O)cc3)C(=O)N[C@H](Cc3c[nH]c4ccccc34)C(=O)N[C@@H](CCCCN)C(=O)N[C@@H]([C@@H](C)O)C(=O)N[C@@H](Cc3ccccc3)C(=O)N1C)[C@]1(C)O[C@H]1[C@H](C)[C@@H]1C[C@@](O)(NC(=O)O1)[C@H](OC)/C=C/C=C(\C)C2` [Conjugate 14]: the “H69 tumor DM-1 levels” value in data set [1] is 70.1 nM. Also, the IC50 (in general, the midpoint of a concentration-inhibition curve) came to 298 nM in data set [2] (setting [4]) and 877 nM in data set [2] (setting [5]).

For `COc1cc2cc(c1Cl)N(C)C(=O)C[C@H](OC(=O)[C@H](C)N(C)C(=O)CCSSC[C@H](NC(=O)CC[C@H]1C(=O)N[C@@H](Cc3ccc(O)cc3)C(=O)N[C@H](Cc3c[nH]c4ccccc34)C(=O)N[C@@H](CCCCN)C(=O)N[C@@H]([C@@H](C)O)C(=O)N[C@@H](Cc3ccccc3)C(=O)N1C)C(=O)NC(C)(C)CC(C)(C)C)[C@]1(C)O[C@H]1[C@H](C)[C@@H]1C[C@@](O)(NC(=O)O1)[C@H](OC)/C=C/C=C(\C)C2` [Conjugate 16], the “H69 tumor DM-1 levels” value in data set [1] is 96.4 nM. Further, the results for the IC50 in data set [2] (setting [4]) and in data set [2] (setting [5]) were 223 nM and 398 nM, respectively.

As to `COc1cc2cc(c1Cl)N(C)C(=O)C[C@H](OC(=O)[C@H](C)N(C)C(=O)CCSSCCC(=O)NCCCOCCOCCOCCCNC(=O)CC[C@H]1C(=O)N[C@@H](Cc3ccc(O)cc3)C(=O)N[C@H](Cc3c[nH]c4ccccc34)C(=O)N[C@@H](CCCCN)C(=O)N[C@@H]([C@@H](C)O)C(=O)N[C@@H](Cc3ccccc3)C(=O)N1C)[C@]1(C)O[C@H]1[C@H](C)[C@@H]1C[C@@](O)(NC(=O)O1)[C@H](OC)/C=C/C=C(\C)C2` [Conjugate 18], in data set [1], the “H69 tumor DM-1 levels” value is 86.3 nM. Also, the IC50 is 1480 nM in data set [2] (setting [4]) and 2160 nM in data set [2] (setting [5]).

Take `CCCCN(CCSSCCC(=O)N(C)[C@@H](C)C(=O)O[C@H]1CC(=O)N(C)c2cc(cc(OC)c2Cl)C/C(C)=C/C=C/[C@@H](OC)[C@@]2(O)C[C@H](OC(=O)N2)[C@@H](C)[C@@H]2O[C@@]12C)C(=O)CC[C@H]1C(=O)N[C@@H](Cc2ccc(O)cc2)C(=O)N[C@H](Cc2c[nH]c3ccccc23)C(=O)N[C@@H](CCCCN)C(=O)N[C@@H]([C@@H](C)O)C(=O)N[C@@H](Cc2ccccc2)C(=O)N1C` [Conjugate 22]: the “H69 tumor DM-1 levels” value in data set [1] worked out at 145 nM. Also, the IC50 in data set [2] (setting [4]) was 332 nM; in data set [2] (setting [5]) it was 741 nM.

As for `COc1cc2cc(c1Cl)N(C)C(=O)C[C@H](OC(=O)[C@H](C)N(C)C(=O)CCSSCCNC(=O)[C@@H](NC(=O)[C@@H]1CSSC[C@H](NC(=O)[C@H](N)Cc3ccccc3)C(=O)N[C@@H](Cc3ccc(O)cc3)C(=O)N[C@H](Cc3c[nH]c4ccccc34)C(=O)N[C@@H](CCCCN)C(=O)N[C@@H]([C@@H](C)O)C(=O)N1)[C@@H](C)O)[C@]1(C)O[C@H]1[C@H](C)[C@@H]1C[C@@](O)(NC(=O)O1)[C@H](OC)/C=C/C=C(\C)C2` [Conjugate 35], the “H69 tumor DM-1 levels” value in data set [1] worked out at 23.2 nM. Further, the results for the IC50 in data set [2] (setting [4]) and in data set [2] (setting [5]) were 253 nM and 1000 nM, respectively.

Consider `CCCCCCCCN[C@H](Cc1ccccc1)C(=O)N[C@H]1CSSC[C@@H](C(=O)N[C@H](C(=O)NCCSSCCC(=O)N(C)[C@@H](C)C(=O)O[C@H]2CC(=O)N(C)c3cc(cc(OC)c3Cl)C/C(C)=C/C=C/[C@@H](OC)[C@@]3(O)C[C@H](OC(=O)N3)[C@@H](C)[C@@H]3O[C@@]23C)[C@@H](C)O)NC(=O)[C@H]([C@@H](C)O)NC(=O)[C@H](CCCCN)NC(=O)[C@@H](Cc2c[nH]c3ccccc23)NC(=O)[C@H](Cc2ccc(O)cc2)NC1=O` [Conjugate 55], for which the “H69 tumor DM-1 levels” value in data set [1] came to 95.3 nM. Further, the IC50 in data set [2] (setting [4]) worked out at 47 nM; in data set [2] (setting [5]) it was 395 nM.

Take `COc1cc2cc(c1Cl)N(C)C(=O)C[C@H](OC(=O)[C@H](C)N(C)C(=O)CCSSC[C@H](NC(=O)[C@@H]1CSSC[C@H](NC(=O)[C@H](N)Cc3ccccc3)C(=O)N[C@@H](Cc3ccc(O)cc3)C(=O)N[C@H](Cc3c[nH]c4ccccc34)C(=O)N[C@@H](CCCCN)C(=O)N[C@@H]([C@@H](C)O)C(=O)N1)C(N)=O)[C@]1(C)O[C@H]1[C@H](C)[C@@H]1C[C@@](O)(NC(=O)O1)[C@H](OC)/C=C/C=C(\C)C2` [Conjugate 57]: in data set [1], the “H69 tumor DM-1 levels” value is 243 nM. For the same compound, the IC50 in data set [2] (setting [4]) is 136 nM; in data set [2] (setting [5]), 1650 nM.

For `COc1cc2cc(c1Cl)N(C)C(=O)C[C@H](OC(=O)[C@H](C)N(C)C(=O)CCSSCCCN[C@H](Cc1ccccc1)C(=O)N[C@H]1CSSC[C@@H](C(=O)N[C@@H](Cc3c[nH]c4ccccc34)C(N)=O)NC(=O)[C@H](C(C)C)NC(=O)[C@H](CCCCN)NC(=O)[C@@H](Cc3c[nH]c4ccccc34)NC(=O)[C@H](Cc3ccc(O)cc3)NC1=O)[C@]1(C)O[C@H]1[C@H](C)[C@@H]1C[C@@](O)(NC(=O)O1)[C@H](OC)/C=C/C=C(\C)C2` [Conjugate 78] (H-[N(3-sulfanylpropyl)dPhe](X1)CY[dW]KVCW-NH2; disulfide 2-7), in data set [1], the “H69 tumor DM-1 levels” value was 36.2 nM. For the same compound, the affinity in data set [3], expressed as Ki, was 0.19 nM. In addition, the IC50 worked out at 124 nM in data set [2] (setting [4]) and 365 nM in data set [2] (setting [5]).

On to `COc1cc2cc(c1Cl)N(C)C(=O)C[C@H](OC(=O)[C@H](C)N(C)C(=O)CCSSCCCN[C@H](Cc1ccccc1)C(=O)N[C@H]1CSSC[C@@H](C(=O)N[C@H](C(=O)O)[C@@H](C)O)NC(=O)[C@H]([C@@H](C)O)NC(=O)[C@H](CCCCN)NC(=O)[C@@H](Cc3c[nH]c4ccccc34)NC(=O)[C@H](Cc3ccc(O)cc3)NC1=O)[C@]1(C)O[C@H]1[C@H](C)[C@@H]1C[C@@](O)(NC(=O)O1)[C@H](OC)/C=C/C=C(\C)C2` [Conjugate 80], for which the “H69 tumor DM-1 levels” value in data set [1] was 91.2 nM. Further, the IC50 in data set [2] (setting [4]) worked out at 152 nM; in data set [2] (setting [5]) it was 157 nM.

As for `COc1cc2cc(c1Cl)N(C)C(=O)C[C@H](OC(=O)[C@H](C)N(C)C(=O)CCSSCCOc1ccc(C[C@@H](N)C(=O)N[C@H]3CSSC[C@@H](C(=O)N[C@H](C(=O)O)[C@@H](C)O)NC(=O)[C@H]([C@@H](C)O)NC(=O)[C@H](CCCCN)NC(=O)[C@@H](Cc4c[nH]c5ccccc45)NC(=O)[C@H](Cc4ccc(O)cc4)NC3=O)cc1)[C@]1(C)O[C@H]1[C@H](C)[C@@H]1C[C@@](O)(NC(=O)O1)[C@H](OC)/C=C/C=C(\C)C2` [Conjugate 111], in data set [1], the “H69 tumor DM-1 levels” value was found to be 82.6 nM. Further, the values for the IC50 in data set [2] (setting [4]) and in data set [2] (setting [5]) were 123 nM and 742 nM, respectively.

In the case of `COc1cc2cc(c1Cl)N(C)C(=O)C[C@H](OC(=O)[C@H](C)N(C)C(=O)CCSSCCC(=O)NCc1ccc(C[C@@H](N)C(=O)N[C@H]3CSSC[C@@H](C(=O)N[C@H](C(=O)O)[C@@H](C)O)NC(=O)[C@H]([C@@H](C)O)NC(=O)[C@H](CCCCN)NC(=O)[C@@H](Cc4c[nH]c5ccccc45)NC(=O)[C@H](Cc4ccc(O)cc4)NC3=O)cc1)[C@]1(C)O[C@H]1[C@H](C)[C@@H]1C[C@@](O)(NC(=O)O1)[C@H](OC)/C=C/C=C(\C)C2` [Conjugate 115], in data set [1], the “H69 tumor DM-1 levels” value is recorded as 37.1 nM. Further, the IC50 worked out at 327 nM in data set [2] (setting [4]) and 1500 nM in data set [2] (setting [5]).

`COc1cc2cc(c1Cl)N(C)C(=O)C[C@H](OC(=O)[C@H](C)N(C)C(=O)CCS)[C@]1(C)O[C@H]1[C@H](C)[C@@H]1C[C@@](O)(NC(=O)O1)[C@H](OC)/C=C/C=C(\C)C2` [DM-1, reference compound]: the “H69 tumor DM-1 levels” value in data set [1] is recorded as 31.6 nM. Also, the IC50 in data set [2] (setting [4]) and in data set [2] (setting [5]) was 90 nM each time.
